Experimental data published in patent US6737383B1, “Herbicidal oxadiazolidines” (priority 1999, dated 2004).

Assays:
giant foxtail = experiment: Test B pre/postemergence giant foxtail; format: in vivo, Setaria faberii
Summary of the method: (§1)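 Herbicidal effect was estimated by eye on a ten-point control scale after plants spent twelve to sixteen days in a greenhouse following soil or foliar treatment. Foliar sprays targeted plants at one to four leaves; all doses were formulated in a non-phytotoxic solvent with surfactant.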

surinam grass = experiment: Test B pre/postemergence surinam grass; format: in vivo, Brachiaria decumbens
Summary of the method: as §1

rice = experiment: Test B flood test rice; format: in vivo, Oryza sativa
Summary of the method: (§2)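 Each value is a visual injury score relative to controls, with 10 meaning complete control and 0 no effect. Evaluation took place twelve to sixteen days after the 2-leaf-stage plants were treated and kept in the greenhouse.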

velvetleaf = experiment: Test B pre/postemergence velvetleaf; format: in vivo, Abutilon theophrasti
Summary of the method: as §1

morningglory = experiment: Test B pre/postemergence morningglory; format: in vivo, Ipomoea hederacea
Summary of the method: as §1

bedstraw = experiment: Test B pre/postemergence bedstraw; format: in vivo, Galium aparine
Summary of the method: as §1

sugar beet = experiment: Test B pre/postemergence sugar beet; format: in vivo, Beta vulgaris
Summary of the method: as §1

duck salad = experiment: Test B flood test duck salad; format: in vivo, Heteranthera limosa
Summary of the method: as §2

soybean = experiment: Test B pre/postemergence soybean; format: in vivo, Glycine max
Summary of the method: as §1

smallflower flatsedge = experiment: Test B flood test smallflower flatsedge; format: in vivo, Cyperus difformis
Summary of the method: as §2

purple nutsedge = experiment: Test B pre/postemergence purple nutsedge; format: in vivo, Cyperus rotundus
Summary of the method: as §1

rape = experiment: Test B pre/postemergence rape; format: in vivo, Brassica napus
Summary of the method: as §1

blackgrass = experiment: Test B pre/postemergence blackgrass; format: in vivo, Alopecurus myosuroides
Summary of the method: as §1

bamyardgrass = experiment: Test B flood test barnyardgrass; format: in vivo, Echinochloa crus-galli
Summary of the method: as §2

corn = experiment: Test B pre/postemergence corn; format: in vivo, Zea mays
Summary of the method: as §1

pigweed = experiment: Test B pre/postemergence pigweed; format: in vivo, Amaranthus retroflexus
Summary of the method: as §1

[1] = Postemergence, Rate 125 g/ha, scale 0 to 10, 0 is no effect, 10 is complete control
[2] = Preemergence, Rate 62 g/ha, scale of 0 to 10 where 0 is no effect and 10 is complete control
[3] = Preemergence, Rate 250 g/ha, scale of 0 to 10 where 0 is no effect and 10 is complete control
[4] = Preemergence, Rate 500 g/ha, scale of 0 to 10 where 0 is no effect and 10 is complete control
[5] = Rate 62 g/ha, Postemergence, scale 0 to 10 (0 no effect, 10 complete control)
[6] = Rate 500 g/ha, Postemergence, scale 0 to 10, 0 no effect, 10 complete control
[7] = Rate 250 g/ha, Postemergence, scale of 0 to 10 where 0 is no effect and 10 is complete control
[8] = Rate 62 g/ha, headed Pre-emergence (flood test species), scale 0 to 10 (0 no effect, 10 complete control)
[9] = Rate 125 g/ha, Pre-emergence, flood test species, scale 0 to 10 where 0 is no effect and 10 is complete control
[10] = Rate 250 g/ha, Pre-emergence, flood-test species, scale 0 to 10, 0 is no effect, 10 is complete control
[11] = Rate 500 g/ha, Pre-emergence, flood test species, scale 0 to 10 (0 no effect, 10 complete control)

CC(C)N(C(=O)n1oc(=O)n(-c2ccc3ccccc3c2)c1=O)c1ccc(F)cc1F [Compound 335]
0: Plant response rating, Giant foxtail (giant foxtail; [1]) | Giant foxtail plant response rating (giant foxtail; [5]) | Plant response rating, Giant foxtail (giant foxtail; [6]) | Plant response rating, B. signalgrass (surinam grass; [1]) | B. signalgrass plant response rating (surinam grass; [2]) | B. signalgrass plant response rating (0 to 10 scale, 0 is no effect, 10 is complete control) (surinam grass; Preemergence, Rate 125 g/ha) | B. signalgrass plant response rating (surinam grass; [3]) | B. signalgrass plant response rating (surinam grass; [4]) | B. signalgrass plant response rating (surinam grass; [5]) | Plant response rating, B. signalgrass (surinam grass; [7]) | Plant response rating, B. signalgrass (surinam grass; [6]) | Rice plant response rating (rice; [8]) | Rice plant response rating (rice; [9]) | Rice plant response rating (rice; [10]) | Rice plant response rating (rice; [11]) | Plant response rating, Velvetleaf (velvetleaf; [1]) | Velvetleaf plant response rating (velvetleaf; [2]) | Velvetleaf plant response rating (0 to 10 scale) (velvetleaf; Preemergence, Rate 125 g/ha) | Velvetleaf plant response rating (velvetleaf; [3]) | Velvetleaf plant response rating (velvetleaf; [4]) | Velvetleaf plant response rating (velvetleaf; [5]) | Plant response rating, Velvetleaf (velvetleaf; [6]) | Plant response rating, Morningglory (morningglory; [1]) | Morningglory plant response rating (morningglory; [2]) | Morningglory plant response rating (0 to 10 scale) (morningglory; Preemergence, Rate 125 g/ha) | Morningglory plant response rating (morningglory; [3]) | Morningglory plant response rating (morningglory; [4]) | Morningglory plant response rating (morningglory; [5]) | Plant response rating, Morningglory (morningglory; [6]) | Plant response rating, Bedstraw (bedstraw; [1]) | Bedstraw plant response rating (bedstraw; [2]) | Bedstraw plant response rating (0 to 10 scale) (bedstraw; Preemergence, Rate 125 g/ha) | Bedstraw plant response rating (bedstraw; [3]) | Bedstraw plant response rating (bedstraw; [5]) | Plant response rating, Bedstraw (bedstraw; [7]) | Plant response rating, Sugarbeets (sugar beet; [1]) | Sugarbeets plant response rating (sugar beet; [2]) | Sugarbeets plant response rating (0 to 10 scale) (sugar beet; Preemergence, Rate 125 g/ha) | Sugarbeets plant response rating (sugar beet; [3]) | Sugarbeets plant response rating (sugar beet; [4]) | Sugarbeets plant response rating (sugar beet; [5]) | Plant response rating, Sugarbeets (sugar beet; [6]) | Ducksalad plant response rating (duck salad; [8]) | Ducksalad plant response rating (duck salad; [9]) | Ducksalad plant response rating (duck salad; [10]) | Ducksalad plant response rating (duck salad; [11]) | Soybean plant response rating (soybean; [2]) | Soybean plant response rating (0 to 10 scale) (soybean; Preemergence, Rate 125 g/ha) | Soybean plant response rating (soybean; [3]) | Soybean plant response rating (soybean; [4]) | S. Flatsedge plant response rating (smallflower flatsedge; [8]) | S. Flatsedge plant response rating (smallflower flatsedge; [9]) | S. Flatsedge plant response rating (smallflower flatsedge; [10]) | S. Flatsedge plant response rating (smallflower flatsedge; [11]) | Plant response rating, Nutsedge (purple nutsedge; [1]) | Nutsedge plant response rating (purple nutsedge; [2]) | Nutsedge plant response rating (0 to 10 scale) (purple nutsedge; Preemergence, Rate 125 g/ha) | Nutsedge plant response rating (purple nutsedge; [3]) | Nutsedge plant response rating (purple nutsedge; [4]) | Nutsedge plant response rating (purple nutsedge; [5]) | Plant response rating, Nutsedge (purple nutsedge; [6]) | Plant response rating, Rape (rape; [1]) | Rape plant response rating (rape; [2]) | Rape plant response rating (0 to 10 scale) (rape; Preemergence, Rate 125 g/ha) | Rape plant response rating (rape; [3]) | Rape plant response rating (rape; [4]) | Rape plant response rating (rape; [5]) | Plant response rating, Rape (rape; [6]) | Plant response rating, Blackgrass (blackgrass; [1]) | Blackgrass plant response rating (blackgrass; [2]) | Blackgrass plant response rating (0 to 10 scale) (blackgrass; Preemergence, Rate 125 g/ha) | Blackgrass plant response rating (blackgrass; [3]) | Blackgrass plant response rating (blackgrass; [4]) | Blackgrass plant response rating (blackgrass; [5]) | Plant response rating, Blackgrass (blackgrass; [7]) | Plant response rating, Blackgrass (blackgrass; [6]) | Barnyardgrass plant response rating (bamyardgrass; [8]) | Barnyardgrass plant response rating (bamyardgrass; [9]) | Barnyardgrass plant response rating (bamyardgrass; [10]) | Plant response rating, Corn (corn; [1]) | Corn plant response rating (corn; [2]) | Corn plant response rating (0 to 10 scale) (corn; Preemergence, Rate 125 g/ha) | Corn plant response rating (corn; [3]) | Corn plant response rating (corn; [4]) | Corn plant response rating (corn; [5]) | Plant response rating, Corn (corn; [6]) | Plant response rating, Redroot pigweed (pigweed; [1]) | Redroot pigweed plant response rating (pigweed; [2]) | Redroot pigweed plant response rating (0 to 10 scale) (pigweed; Preemergence, Rate 125 g/ha) | Redroot pigweed plant response rating (pigweed; [3]) | Redroot pigweed plant response rating (pigweed; [4]) | Redroot pigweed plant response rating (pigweed; [5]) | Plant response rating, Redroot pigweed (pigweed; [6])
2: Giant foxtail plant response rating (giant foxtail; [2]) | Plant response rating, Soybean (soybean; [1]) | Plant response rating, Soybean (soybean; [6])
10: Giant foxtail plant response rating (giant foxtail; [3]) | Giant foxtail plant response rating (giant foxtail; [4])
4: Giant foxtail plant response rating (0 to 10 scale) (giant foxtail; Preemergence, Rate 125 g/ha) | Plant response rating, Bedstraw (bedstraw; [6]) | Barnyardgrass plant response rating (bamyardgrass; [11])
1: Soybean plant response rating (soybean; [5])
